Reference: PubChem BioAssay AID324 (DTP/NCI, 2004)
“And” between values parts separate entries of the source, which are not always exact repeats. Equal values may be shown once. Toxic doses and inconclusive results are not listed.

Test system: CD2F1 mice, AMSA-resistant P388 leukemia ip, median survival T/C
Test: NCI In Vivo Anticancer Drug Screen. Data for tumor model P388 Leukemia resistant to AMSA; NSC 249992 (intraperitoneal) in CD2F1 (CDF1) mice
Settings: endpoint: median survival time, higher = longer survival
Method: The antitumor activity of compounds was measured in mice bearing transplantable tumors. Survival or tumor size were measured and the results are expressed as the measurement made in the treated group (T) divided by the measurement made in the vehicle treated control group (C). The tumor model used in this assay is P388 Leukemia resistant to AMSA; NSC 249992 (intraperitoneal) in CD2F1 (CDF1) mice

[1] = dose: 4.32 mg/kg/injection, schedule: Q04DX003 (ip), vehicle: water
[2] = dose: 7.2 mg/kg/injection, schedule: Q04DX003 (ip), vehicle: water

With `CCCCC(=O)N(c1ccc(Nc2c3ccccc3nc3cc([N+](=O)[O-])ccc23)cc1)S(C)(=O)=O` the T/C (dose: 10.8 mg/kg/injection, schedule: Q04DX003 (ip), vehicle: water) was 100 % of control, the T/C (dose: 18.0 mg/kg/injection, schedule: Q04DX003 (ip), vehicle: water) was 96 % of control and the T/C (dose: 30.0 mg/kg/injection, schedule: Q04DX003 (ip), vehicle: water) was 95 % of control. For the same compound, the T/C (dose: 50.0 mg/kg/injection, schedule: Q04DX003 (ip), vehicle: water) was 99 % of control and the T/C (dose: 83.3 mg/kg/injection, schedule: Q04DX003 (ip), vehicle: water) was 91 % of control.

For `CCN(CC)CCNc1ccc(C)c2sc3ccccc3c(=O)c12`, the T/C (dose: 16.2 mg/kg/injection, schedule: Q01DX005 (ip), vehicle: saline) was 101 % of control, the T/C (dose: 19.4 mg/kg/injection, schedule: Q01DX005 (ip), vehicle: water) was 92 % of control and the T/C (dose: 27.0 mg/kg/injection, schedule: Q01DX005 (ip), vehicle: saline) was 101 % of control. For the same compound, the T/C (dose: 45.0 mg/kg/injection, schedule: Q01DX005 (ip), vehicle: saline) was 99 % of control, the T/C (dose: 54.0 mg/kg/injection, schedule: Q01DX005 (ip), vehicle: water) was 90 % of control and the T/C (dose: 75.0 mg/kg/injection, schedule: Q01DX005 (ip), vehicle: saline) was 94 % of control. The T/C (dose: 90.0 mg/kg/injection, schedule: Q01DX005 (ip), vehicle: water) was 89 % of control and the T/C (dose: 125.0 mg/kg/injection, schedule: Q01DX005 (ip), vehicle: saline) was 90 % of control.

`O=C1c2c(O)ccc(O)c2C(=O)c2c(NCCNCCO)ccc(NCCNCCO)c21` was tested, and the T/C (dose: 1.3 mg/kg/injection, schedule: Q04DX002 (ip), vehicle: water) was 110 % of control, the T/C (dose: 3.6 mg/kg/injection, schedule: Q04DX003 (ip), vehicle: saline) was 157 % of control and the T/C (dose: 6.0 mg/kg/injection, schedule: Q04DX002 (ip), vehicle: water) was 96 % of control. The T/C (dose: 6.0 mg/kg/injection, schedule: Q04DX003 (ip), vehicle: saline) was 96 % of control and 123 % of control and the T/C (dose: 10.0 mg/kg/injection, schedule: Q04DX002 (ip), vehicle: water) was 89 % of control.

`CC(CN1CC(=O)NC(=O)C1)N1CC(=O)NC(=O)C1` (stereo not given) was tested, and the T/C (dose: 300.0 mg/kg/injection, schedule: Q04DX003 (ip), vehicle: saline) was 198 % of control.

`COc1cc(NS(C)(=O)=O)ccc1Nc1c2ccccc2nc2ccccc12` was tested, and the T/C (dose: 1.56 mg/kg/injection, schedule: Q04DX003 (ip), vehicle: other) was 93 % of control, the T/C (dose: 2.33 mg/kg/injection, schedule: Q01DX001 (ip), vehicle: other) was 111 % of control and the T/C (dose: 2.59 mg/kg/injection, schedule: Q01DX001 (ip), vehicle: other) was 105 % of control. For the same compound, the T/C (dose: 2.59 mg/kg/injection, schedule: Q04DX001 (ip), vehicle: other) was 105 % of control, the T/C (dose: 2.59 mg/kg/injection, schedule: Q04DX002 (ip), vehicle: other) was 111 % of control and 116 % of control and the T/C (dose: 2.59 mg/kg/injection, schedule: Q04DX003 (ip), vehicle: clinical formulation) was 106 % of control. For the same compound, the T/C (dose: 2.59 mg/kg/injection, schedule: Q04DX003 (ip), vehicle: other) was 98 % of control and 100 % of control and 106 % of control, the T/C (dose: 2.59 mg/kg/injection, schedule: Q04DX003 (ip), vehicle: water) was 98 % of control and 100 % of control and 104 % of control and the T/C (dose: 3.89 mg/kg/injection, schedule: Q01DX001 (ip), vehicle: other) was 109 % of control. For the same compound, the T/C (dose: 4.32 mg/kg/injection, schedule: Q01DX001 (ip), vehicle: other) was 105 % of control, the T/C (dose: 4.32 mg/kg/injection, schedule: Q04DX001 (ip), vehicle: other) was 105 % of control and the T/C (dose: 4.32 mg/kg/injection, schedule: Q04DX002 (ip), vehicle: other) was 117 % of control and 120 % of control. The T/C (dose: 4.32 mg/kg/injection, schedule: Q04DX003 (ip), vehicle: clinical formulation) was 123 % of control, the T/C (dose: 4.32 mg/kg/injection, schedule: Q04DX003 (ip), vehicle: other) was 91 % of control and 101 % of control and 108 % of control and the T/C [1] was 100 % of control and 101 % of control and 105 % of control. For the same compound, the T/C (dose: 6.48 mg/kg/injection, schedule: Q01DX001 (ip), vehicle: other) was 104 % of control, the T/C (dose: 7.2 mg/kg/injection, schedule: Q01DX001 (ip), vehicle: other) was 101 % of control and the T/C (dose: 7.2 mg/kg/injection, schedule: Q04DX001 (ip), vehicle: other) was 101 % of control. For the same compound, the T/C (dose: 7.2 mg/kg/injection, schedule: Q04DX002 (ip), vehicle: other) was 101 % of control and 114 % of control, the T/C (dose: 7.2 mg/kg/injection, schedule: Q04DX003 (ip), vehicle: clinical formulation) was 124 % of control and the T/C (dose: 7.2 mg/kg/injection, schedule: Q04DX003 (ip), vehicle: other) was 97 % of control and 110 % of control and 89 % of control. For the same compound, the T/C [2] was 102 % of control and 107 % of control and 113 % of control, the T/C (dose: 10.0 mg/kg/injection, schedule: Q04DX003 (ip), vehicle: saline with Tween-80) was 120 % of control and the T/C (dose: 10.8 mg/kg/injection, schedule: Q01DX001 (ip), vehicle: other) was 100 % of control. For the same compound, the T/C (dose: 12.0 mg/kg/injection, schedule: Q01DX001 (ip), vehicle: other) was 99 % of control, the T/C (dose: 12.0 mg/kg/injection, schedule: Q04DX001 (ip), vehicle: other) was 99 % of control and the T/C (dose: 12.0 mg/kg/injection, schedule: Q04DX002 (ip), vehicle: other) was 119 % of control and 120 % of control. For the same compound, the T/C (dose: 12.0 mg/kg/injection, schedule: Q04DX003 (ip), vehicle: other) was 90 % of control and 103 % of control (2×), the T/C (dose: 12.0 mg/kg/injection, schedule: Q04DX003 (ip), vehicle: water) was 102 % of control and the T/C (dose: 18.0 mg/kg/injection, schedule: Q01DX001 (ip), vehicle: other) was 110 % of control. The T/C (dose: 20.0 mg/kg/injection, schedule: Q01DX001 (ip), vehicle: other) was 90 % of control, the T/C (dose: 20.0 mg/kg/injection, schedule: Q04DX001 (ip), vehicle: other) was 90 % of control and the T/C (dose: 20.0 mg/kg/injection, schedule: Q04DX002 (ip), vehicle: other) was 92 % of control and 111 % of control. The T/C (dose: 20.0 mg/kg/injection, schedule: Q04DX003 (ip), vehicle: other) was 106 % of control and the T/C (dose: 30.0 mg/kg/injection, schedule: Q01DX001 (ip), vehicle: other) was 105 % of control.

`COc1cccc2c1C(=N)c1c(O)c3c(c(O)c1C2=O)C[C@@](O)(C(C)=O)C[C@@H]3OC1CC(N)C(O)C(C)O1` (stereo not given in full) was tested, and the T/C (dose: 1.94 mg/kg/injection, schedule: Q04DX003 (ip), vehicle: water) was 98 % of control, the T/C (dose: 3.24 mg/kg/injection, schedule: Q04DX003 (ip), vehicle: water) was 98 % of control and the T/C (dose: 5.4 mg/kg/injection, schedule: Q04DX003 (ip), vehicle: water) was 97 % of control. The T/C (dose: 9.0 mg/kg/injection, schedule: Q04DX003 (ip), vehicle: water) was 100 % of control and the T/C (dose: 15.0 mg/kg/injection, schedule: Q04DX003 (ip), vehicle: water) was 100 % of control.

`COc1cccc2c1C(=O)c1c(O)c3c(c(O)c1C2=O)C[C@@](O)(C(C)=O)C[C@@H]3OC1CC(N(C)C)C(O)C(C)O1` (stereo not given in full) was tested, and the T/C (dose: 3.6 mg/kg/injection, schedule: Q04DX003 (ip), vehicle: water) was 150 % of control, the T/C (dose: 6.0 mg/kg/injection, schedule: Q04DX003 (ip), vehicle: water) was 168 % of control and the T/C (dose: 10.0 mg/kg/injection, schedule: Q04DX003 (ip), vehicle: water) was 166 % of control. For the same compound, the T/C (dose: 16.7 mg/kg/injection, schedule: Q04DX003 (ip), vehicle: water) was 107 % of control.

`COc1cc([C@@H]2c3cc4c(cc3[C@@H](OC3OC5CO[C@@H](c6cccs6)OC5C(O)C3O)[C@H]3COC(=O)[C@H]23)OCO4)cc(OC)c1O` (stereo not given in full) was tested, and the T/C (dose: 25.0 mg/kg/injection, schedule: Q04DX003 (ip), vehicle: clinical formulation) was 90 % of control.

With `CC(=O)[C@]1(O)Cc2c(O)c3c(c(O)c2[C@@H](OC2CC(N)C(O)C(C)O2)C1)C(=O)c1c(O)cccc1C3=O` (stereo not given in full) the T/C (dose: 0.13 mg/kg/injection, schedule: Q04DX003 (ip), vehicle: water) was 122 % of control, the T/C (dose: 0.21 mg/kg/injection, schedule: Q04DX003 (ip), vehicle: water) was 115 % of control and the T/C (dose: 0.36 mg/kg/injection, schedule: Q04DX003 (ip), vehicle: water) was 109 % of control. For the same compound, the T/C (dose: 0.6 mg/kg/injection, schedule: Q04DX003 (ip), vehicle: water) was 124 % of control and the T/C (dose: 1.0 mg/kg/injection, schedule: Q04DX003 (ip), vehicle: water) was 97 % of control.

For `COC(=O)C[C@](O)(CCCC(C)(C)O)C(=O)O[C@@H]1C(OC)=C[C@]23CCCN2CCc2cc4c(cc2[C@H]13)OCO4`, the T/C (dose: 1.8 mg/kg/injection, schedule: Q04DX003 (ip), vehicle: saline + alcohol) was 153 % of control and the T/C (dose: 3.0 mg/kg/injection, schedule: Q04DX003 (ip), vehicle: saline + alcohol) was 163 % of control.

For `COc1cc2cc3c4cc(OC)c(OC)cc4cc[n+]3c(C)c2cc1OC` (tested in a mixture with another compound), the T/C (dose: 25.9 mg/kg/injection, schedule: Q04DX003 (ip), vehicle: water) was 110 % of control and the T/C (dose: 43.2 mg/kg/injection, schedule: Q04DX003 (ip), vehicle: water) was 116 % of control.

With `CC[C@@]1(O)C[C@H](OC2CC(N(C)C)C(OC3CC(O)C(OC4CCC(=O)C(C)O4)C(C)O3)C(C)O2)c2c(cc3c(c2O)C(=O)c2c(O)ccc(O)c2C3=O)[C@H]1C(=O)OC` (stereo not given in full) the T/C [1] was 153 % of control and 158 % of control and the T/C [2] was 123 % of control and 219 % of control.
